Legend:
Type in all cases: physicochemical
[1] = Photothermal performance in PBS under 808 nm laser; details: PBS pH 7.4, 100 μM, 808 nm laser 0.8 W/cm^2, 5 min
Description: The PBS solution (pH 7.4) of TPA-T-TQ ONPs and ICG in different concentrations were continuously exposed to NIR laser of 808 nm with a power intensity of 0.8 W/cm^2 for 5 min. The temperature was measured every 20 s and stopped until the temperature nearly reached a plateau. The corresponding IR thermal images were also recorded. To evaluate the photothermal conversion property, we quantitatively measured the temperature change of TPA-T-TQ ONP solution at different concentrations as a function of 808 nm laser (0.8 W/cm^2) irradiation time. As depicted in FIG. 9B, temperature increases very fast initially, and reaches a plateau after 3 min laser irradiation. It is noted that the eventual temperature at the plateau depends on the ONP concentration. The temperature increase of ONPs and ICG solutions upon exposure to 808 nm laser irradiation was compared. […] The difference in temperature elevation of the two samples at various irradiation times can be intuitively visualized from the infrared (IR) thermal images (FIG. 9A).

[2] = Photostability under continuous 808 nm laser irradiation; details: PBS pH 7.4, 808 nm laser 0.8 W/cm^2, 15 min
Description: (§1) For the photostability study, PBS solutions (pH 7.4) of TPA-T-TQ ONPs and ICG were irradiated under 808-nm laser (0.8 W/cm^2), and the absorption spectra were measured at different time points. For the anti-photobleaching study, the temperatures of the sample solutions were recorded during five circles of heating and cooling. In one heating-cooling circle, the NIR laser first irradiated the samples for 5 min to reach a steady state, then the laser was removed and the samples were naturally cooled down to ambient temperature in 6 min.
(§2) For the RONS-stability study, two kinds of RONS were used, i.e., ONOO^− and .OH, which were prepared according to the literature. The absorption and photoluminescence spectra were recorded before and after addition of 0.4 mM of RONS. […] Then the photostability of TPA-T-TQ ONPs was evaluated along with ICG under continuous 808 nm laser irradiation (0.8 W/cm^2) by recording the apparent colors and absorption spectra after laser irradiation for different times. […]
(§3) Then, the anti-photobleaching properties of TPA-T-TQ ONPs and ICG were evaluated by alternative heating and cooling processes (the NIR laser first irradiated the samples for 5 min to heat them up, then the laser was removed, and the samples were naturally cooled down to ambient temperature in 6 min).

[3] = Anti-photobleaching study, five circles of heating-cooling; details: 100 μM, 808 nm 0.8 W/cm^2
Description: as §1, §3

RONS-stability study = details: PBS, ICG read at 780 nm
Description: For the RONS-stability study, two kinds of RONS were used, i.e., ONOO^− and .OH, which were prepared according to the literature. The absorption and photoluminescence spectra were recorded before and after addition of 0.4 mM of RONS. The stabilities of the contrast agents in terms of thermal and photothermal stabilities as well as photobleaching and RONS resistances are crucial for PAI/PTT applications in vivo because incorrect or misleading signals, weakened therapeutic efficacy, and harmful side effects can result if the structure of the agent is destroyed, especially in living systems. Thermogravimetric analysis (TGA) was first carried out to measure the thermal stability of TPA-T-TQ. The decomposition temperature for 5% weight loss of TPA-T-TQ was above 400° C. […] Then the photostability of TPA-T-TQ ONPs was evaluated along with ICG under continuous 808 nm laser irradiation (0.8 W/cm^2) by recording the apparent colors and absorption spectra after laser irradiation for different times. […]
Another important issue related to in vivo applications is the physiological stability against highly reactive molecules such as RONS. […] Therefore, the stability of TPA-T-TQ ONPs and ICG in the presence of two kinds of RONS, peroxynitrite (ONOO^−) and hydroxyl radical (.OH), were measured under physiological conditions. […]

[4] = Thermogravimetric analysis (TGA), thermal stability; details: heating rate 10° C./min, nitrogen atmosphere
Description: ^1H (400 MHz) and ^13C (100 MHz) nuclear magnetic resonance (NMR) spectra were recorded on a Bruker AV 400 spectrometer by using CDCl3 or DMSO-d6 as the solvent. High-resolution mass spectra (HRMS) were measured on a GCT premier CAB048 mass spectrometer in MALDI-TOF mode. Thermogravimetric analysis (TGA) measurement was conducted on a TA TGA Q5000 with a heating rate of 10° C./min under nitrogen atmosphere. The UV-vis-NIR absorption spectra were performed on a PerkinElmer Lambda 365 spectrophotometer. The photoluminescence (PL) spectra were conducted using a Horiba Fluorolog-3 spectrofluorometer. Dynamic light scattering (DLS) was performed on a 90 plus particle size analyzer. Transmission electron microscopy (TEM) images were obtained on a JEM-2010F transmission electron microscope with an accelerating voltage of 200 kV.
as §2

[5] = after two circles of heating-cooling

CC1(C)C(/C=C/C=C/C=C/C=C2\N(CCCCS(=O)(=O)O)c3ccc4ccccc4c3C2(C)C)=[N+](CCCCS(=O)(=O)[O-])c2ccc3ccccc3c21 [ICG, indocyanine green]
temperature increase ΔT in 5 min [1]: ~43 °C | colors and absorption spectra / maximal absorption intensity after NIR light irradiation [2]: nearly drops to zero | temperature elevation relative to the original value [3, 5]: about 20% | temperature elevation ΔT after two circles [3, 5]: ~10 °C | temperature elevation ΔT, original value ([3]; first heating): ~44 °C | maximal absorption intensity relative to the original value after .OH (RONS-stability study; 400 μM .OH for 1 min): ~4% | maximal absorption intensity relative to the original value after ONOO^− (RONS-stability study; 400 μM ONOO^− for 1 min): about 60%

Cc1ccc(N(c2ccc(-c3ccc(-c4c5nsnc5c(-c5ccc(-c6ccc(N(c7ccc(C)cc7)c7ccc(C(C)(C)C)cc7)cc6)s5)c5nc(-c6ccccc6)c(-c6ccccc6)nc45)s3)cc2)c2ccc(C(C)(C)C)cc2)cc1 [TPA-T-TQ, 4,4′-((6,7-Diphenyl-[1,2,5]thiadiazolo[3,4-g]quinoxaline-4,9-diyl)bis(thiophene-5,2-diyl))bis(N-(4-(tert-butyl)phenyl)-N-(p-tolyl)aniline)]
decomposition temperature for 5% weight loss [4]: above 400 °C

Reference: patent publication US11389446B2, “Theranostic agents” (THE HONG KONG UNIVERSITY OF SCIENCE AND TECHNOLOGY, priority 2017, dated 2022)
